{
  "source": "patent US8940697B2",
  "about": "“Compositions and methods for the treatment of myocardial ischemia/reperfusion injury with Annexin A1 short peptide” (Duke University, priority 2009, dated 2015)",
  "key": {"[1]": {"test_system": "NF-kB activation in human pancreatic cancer cell lines", "assay": "NF-kB activation in human pancreatic cancer cell lines by ANXA1 N-terminus short peptides", "type": "cell-based", "conditions": "compared with the other ANXA1 peptides of FIG. 1", "source_text": "FIG. 1 is a graph showing the effect of ANXA1 N-terminus short peptides Ac-QAW, Ac-KQAW (SEQ ID NO:3), Ac-[…] (SEQ ID NO:10), Ac-FLK, Ac-EFLKQAW (SEQ ID NO:6) and Ac-VSEFLKQAW (SEQ ID NO:9) on NF-kB activation in human pancreatic cancer cell lines. Values presented are means±SD; n=5; *P<0.05 and #P<0.001 vs. control (0). Ac=acetylation."}, "[2]": {"test_system": "adult rat ventricular cardiomyocytes (ARVC)", "assay": "ARVC simulated I/R (oxygen-glucose deprivation/reoxygenation)", "type": "cell-based", "conditions": "for cTnI: 30 μM ANXA1sp, 2 h OGD + 24 h reoxygenation, supernatant; for HFABP / TNFα / Apoptosis / Cell Death: 30 μM, OGD/reoxygenation; for Apoptosis: ELISA; for Cell Death: trypan blue", "protocol": "FIG. 4A. Cells were exposed to normal glucose (NG) (a, e), high glucose (HG) (b, f), HG+ANXA1sp (c, g) and HG+Ac2-26 (d, h), respectively, for 24 hours. Cells (e, f, g, h) were washed with deoxygenated glucose-free DMEM medium in an anaerobic chamber that contained a gas mixture of 5% CO2, 10% H2, and 85% N2 and incubated for 2 hours. After oxygen/glucose deprivation (OGD), ARVC cells were cultured in DMEM medium under normoxic conditions in a 5% CO2 incubator for 24 hours. Cells (a, b, c, d) without OGD were used as a control. Cell death was determined by trypan blue staining. FIG. 4B is a graph of the results obtained in FIG. 4A. Specifically, cells were counted in a total of eight random fields in triplicate wells. Values presented are means±SD; n=8.\nCardiomyocytes isolated from adult rat in both normal and hyperglycemic culture media were exposed directly to ANXA1sp. […] The cardioprotective effects of ANXA1sp was further examined in hyperglycemic exacerbation of myocardial injury due to simulated ischemia/reperfusion in vitro. Adult rat ventricular cardiomyocytes (ARVCs) were treated with/without either ANXA1sp or Ac2-26 in both normo- and hyperglycemic culture media for 24 hours. Cells were washed with deoxygenated glucose-free DMEM medium in an anaerobic chamber that filtrated a gas mixture of 5% CO2-10% H2-85% N2 and incubated for 2 hours. After oxygen/glucose deprivation (OGD), cells were cultured under normoxic conditions in a 5% CO2 incubator for 24 hours. Cells without OGD were used as a positive control. Cell death was determined by trypan blue exclusive staining. Cells were counted in triplicate wells and in eight random fields in each well.\nIn vitro study: ARVCs from male Sprague-Dawley (SD) rats were incubated in normal or high glucose (25 mM), with and without 30 μM ANXA1sp (Ac-QAW), or with a scrambled peptide (Ac-QWA), respectively for 24 h. Cells were subjected to 2 h oxygen-glucose deprivation (OGD), followed by 24 h reoxygenation in either normo- or hyperglycemic conditions. Cell death was determined histologically (trypan blue exclusion) and biochemically (supernatant levels of cTnI and HFABP, ELISA). Apoptosis was quantified using ELISA (Roche)."}, "male SD rats": {"test_system": "male SD rats", "assay": "Rat CPB/CA model of myocardial I/R injury (normo- and hyperglycemic)", "type": "in vivo", "conditions": "for NF-κB activity / IL-6 / TNF-α / Caspase-3 / MPO / Apoptosis / HFABP / cTnI: 3 mg/kg total; for NF-κB activity: myocardial DNA binding activity; for NF-κB activity / IL-6 / TNF-α / Caspase-3 / MPO / Apoptosis / HFABP: 24 h; for IL-6 / TNF-α: myocardial tissue; for Caspase-3 / MPO / Apoptosis: myocardium; for Apoptosis: TUNEL; for HFABP / cTnI: plasma; for cTnI: 24 h post-reperfusion", "protocol": "Next, studies were carried out to determine the effectiveness of ANXA1sp on myocardial protection in vivo using a clinically-relevant rodent experimental model of surgical global myocardial ischemia/reperfusion injury. […] Rats were exposed to CPB for 15 minutes before ischemic/reperfusion injury was initiated (i.e., cardioplegic arrest was induced) and maintained for 45 minutes, followed by another 15 minutes of CPB. Animals were weaned from cardiopulmonary bypass and allowed to recover for 24 hours, at which point blood and left ventricular myocardial tissue were harvested for analysis. FIG. 5B is a graph showing the blood glucose levels in rats before and after ischemia. Acute hyperglycemia was induced using dextrose 25% (5 gm/kg) administered preoperatively 0.75 gm intraperitoneally, intraoperatively 0.25 gm in CPB prime and 0.5 gm/hr intravenously, and postoperatively 1 hour after weaning from CPB (intraperitoneally). Perioperative blood glucose levels were maintained at >300 mg/dl. Cardioplegic arrest was induced with cold (4:1) blood cardioplegia. Animals in the AXNA1sp treated group received a total of 3 mg/kg ANXA1sp in 3 equal doses administered before (intraperitoneally), during (intracoronary, mixed with cardioplegia solution), and after CPB (intraperitoneally), respectively. Control animals underwent an identical surgical procedure with vehicle instead of ANXA1sp.\nIn vivo study: with IACUC approval, male SD rats were randomly assigned to 4 groups in a 2×2 design (n=5/group): normo- and hyperglycemic (20 mM) cardioplegic arrest (CA), each treated with ANXA1sp or vehicle, respectively. All animals underwent 75 min of mild hypothermic CPB (33° C.) with 45 min of CA using blood cardioplegia. Treatment groups received ANXA1sp (Ac-QAW, GenScript, 3 mg/kg total) before (ip), during (with cardioplegia), and after CPB (ip) in equal doses, whereas CA control animals received saline. No animals received insulin. At 24 h post-reperfusion the following efficacy end-points were assessed by investigators blinded to the experimental group: 1) plasma myonecrosis biomarkers—cTnI and HFABP (rat specific ELISA, LifeDiagnostics); 2) myocardial apoptosis—cleaved caspase-3 (immunostaining and Western blot) and TUNEL assays; 3) myocardial inflammation—NF-kB DNA binding activity (ELISA, Panomics) and tissue levels of TNF-α and IL-6 (ELISA, ThermoScientific); and 4) myocardial neutrophil transmigration—myeloperoxidase (MPO) activity (ELISA, ThermoScientific)."}},
  "note": "“Also recorded” adds a separate entry of the source.",
  "data": [
    {"substance": "Ac-Gln-Ala-Trp [ANXA1sp]", "values": [
      {"measurement": "inhibiting NF-κB activity", "setting": "[1]", "result": "most effective at inhibiting NF-κB activity"},
      {"measurement": "cardiomyocyte cell death (trypan blue)", "setting": "[2]; 24 h pretreatment, 2 h OGD, 24 h normoxia, Example 3", "result": "significantly decreased cardiomyocyte cell death"},
      {"measurement": "cTnI", "setting": "[2]; HG_SP: high glucose (25 mM)", "result": "7.8 ± 0.6", "unit": "ng/mL"},
      {"measurement": "HFABP", "setting": "[2]; HG_SP: high glucose (25 mM)", "result": "2.0 ± 0.4", "unit": "ng/mL"},
      {"measurement": "TNFα", "setting": "[2]; HG_SP: high glucose (25 mM)", "result": "1.2 ± 0.1", "unit": "ng/mg protein"},
      {"measurement": "Apoptosis", "setting": "[2]; HG_SP: high glucose (25 mM)", "result": "0.7 ± 0.2", "unit": "A.U."},
      {"measurement": "Cell Death", "setting": "[2]; HG_SP: high glucose (25 mM)", "result": "40.5 ± 11.1", "unit": "%"},
      {"measurement": "cTnI", "setting": "[2]; NG_SP: normal glucose", "result": "5.7 ± 0.4", "unit": "ng/mL"},
      {"measurement": "HFABP", "setting": "[2]; NG_SP: normal glucose", "result": "2.4 ± 1.4", "unit": "ng/mL"},
      {"measurement": "TNFα", "setting": "[2]; NG_SP: normal glucose", "result": "0.84 ± 0.1", "unit": "ng/mg protein"},
      {"measurement": "Apoptosis", "setting": "[2]; NG_SP: normal glucose", "result": "0.7 ± 0.2", "unit": "A.U."},
      {"measurement": "Cell Death", "setting": "[2]; NG_SP: normal glucose", "result": "38.6 ± 5.9", "unit": "%"},
      {"measurement": "cardioprotective efficacy compared with Ac2-26", "setting": "[2]; OGD, high glucose, Example 3, FIG. 4", "result": "stronger cardioprotective efficacy than Ac2-26"},
      {"measurement": "NF-κB activity", "setting": "male SD rats; CAHG_SP: hyperglycemic", "result": "1.5 ± 0.5", "unit": "A.U."},
      {"measurement": "IL-6", "setting": "male SD rats; CAHG_SP: hyperglycemic", "result": "107.3 ± 15.5", "unit": "ng/mg"},
      {"measurement": "TNF-α", "setting": "male SD rats; CAHG_SP: hyperglycemic", "result": "105.6 ± 13.3", "unit": "ng/mg"},
      {"measurement": "Caspase-3", "setting": "male SD rats; CAHG_SP: hyperglycemic", "result": "5.9 ± 1.4", "unit": "A.U."},
      {"measurement": "MPO", "setting": "male SD rats; CAHG_SP: hyperglycemic", "result": "467.2 ± 72.4", "unit": "ng/mg"},
      {"measurement": "Apoptosis", "setting": "male SD rats; CAHG_SP: hyperglycemic", "result": "9.5 ± 1.2", "unit": "%"},
      {"measurement": "HFABP", "setting": "male SD rats; CAHG_SP: hyperglycemic", "result": "12.4 ± 2.6", "unit": "ng/mL"},
      {"measurement": "cTnI", "setting": "male SD rats; CAHG_SP: hyperglycemic", "result": "2.1 ± 0.5", "unit": "ng/mL"},
      {"measurement": "NF-κB activity", "setting": "male SD rats; CA_SP: normoglycemic", "result": "0.8 ± 0.04", "unit": "A.U."},
      {"measurement": "IL-6", "setting": "male SD rats; CA_SP: normoglycemic", "result": "38.2 ± 8.1", "unit": "ng/mg"},
      {"measurement": "TNF-α", "setting": "male SD rats; CA_SP: normoglycemic", "result": "28.8 ± 6.7", "unit": "ng/mg"},
      {"measurement": "Caspase-3", "setting": "male SD rats; CA_SP: normoglycemic", "result": "1.9 ± 1.5", "unit": "A.U."},
      {"measurement": "MPO", "setting": "male SD rats; CA_SP: normoglycemic", "result": "104.8 ± 6.6", "unit": "ng/mg"},
      {"measurement": "Apoptosis", "setting": "male SD rats; CA_SP: normoglycemic", "result": "2.4 ± 1.1", "unit": "%"},
      {"measurement": "HFABP", "setting": "male SD rats; CA_SP: normoglycemic", "result": "1.0 ± 0.3", "unit": "ng/mL"},
      {"measurement": "cTnI", "setting": "male SD rats; CA_SP: normoglycemic", "result": "1.0 ± 0.7", "unit": "ng/mL"},
      {"measurement": "myocardial apoptosis (TUNEL)", "setting": "male SD rats; Example 4: acute hyperglycemia, 3 mg/kg, FIG. 7B, 3 mg/kg", "result": "attenuated; also recorded: significantly decreased"},
      {"measurement": "myocardial MPO", "setting": "male SD rats; Example 4: acute hyperglycemia, 3 mg/kg, FIG. 8, 3 mg/kg", "result": "attenuated; also recorded: significantly decreased"},
      {"measurement": "myocardial NF-κB DNA binding activity", "setting": "male SD rats; Example 4: acute hyperglycemia, 3 mg/kg, FIG. 9, 3 mg/kg", "result": "attenuated; also recorded: significantly decreased"},
      {"measurement": "myocardial TNF-α", "setting": "male SD rats; Example 4: acute hyperglycemia, 3 mg/kg, FIG. 10A, 3 mg/kg", "result": "attenuated; also recorded: significantly decreased"},
      {"measurement": "myocardial IL-6", "setting": "male SD rats; Example 4: acute hyperglycemia, 3 mg/kg, FIG. 10B, 3 mg/kg", "result": "attenuated; also recorded: significantly decreased"},
      {"measurement": "myocardial caspase-3 activity", "setting": "male SD rats; Example 4: acute hyperglycemia, 3 mg/kg, Western blot, FIG. 7A, 3 mg/kg", "result": "attenuated; also recorded: significantly decreased"},
      {"measurement": "myonecrosis biomarker HFABP", "setting": "male SD rats; Example 4: acute hyperglycemia, 3 mg/kg, vs CAHG, FIG. 6B, 3 mg/kg", "result": "attenuated; also recorded: significantly decreased"},
      {"measurement": "hyperglycemic exacerbation of perioperative myocardial injury", "setting": "male SD rats; Example 4: cardioplegic arrest and acute hyperglycemia, 3 mg/kg", "result": "attenuated"},
      {"measurement": "myonecrosis biomarker cTnI", "setting": "male SD rats; Example 4: cardioplegic arrest and acute hyperglycemia, 3 mg/kg, vs CAHG, FIG. 6A, 3 mg/kg", "result": "attenuated; also recorded: significantly decreased"},
      {"measurement": "in vivo interaction between ANXA1 and NF-κB p65 subunit", "setting": "male SD rats; co-immunoprecipitation and confocal co-localization in cardiomyocytes, FIG. 11", "result": "significantly induces; also recorded: strongly induced"}
    ]}
  ]
}
